Columns and labels:
[1] = stability / hygroscopicity on standing at ambient conditions; assay type: physicochemical; conditions: for hygroscopicity / stability at room temperature and humidity: standard room temperature and humidity; for stability under ambient conditions: thermogravimetric analysis after 5 hours standing at ambient conditions
Protocol: The partially dehydrated material was allowed to stand for about 5 hours.

[2] = cited from earlier work
crystal size by SEM = assay type: physicochemical
Description: In contrast, the crystals of monohydrate form 2 are much smaller, and in a narrower size range, than those of monohydrate form 1, typically 5 μm or less in edge length.

SMILES	hygroscopicity / stability at room temperature and humidity [1]	stability under ambient conditions [1]	further results
NCCCC[C@H](N[C@@H](CCc1ccccc1)C(=O)O)C(=O)N1CCC[C@H]1C(=O)O.O [Preparation 3]	strongly hygroscopic	regained the lost weight and to have become a dihydrate	
NCCCC[C@H](N[C@@H](CCc1ccccc1)C(=O)O)C(=O)N1CCC[C@H]1C(=O)O [lisinopril, 1-(N^2-[(S)-1-carboxy-3-phenylpropyl]-L-lysyl)-L-proline]			time to peak serum concentrations ([2]; following oral administration): ≤ 7 h; effective half-life of accumulation ([2]; on multiple dosing): about 12.6 hours
NCCCC[C@H](N[C@@H](CCc1ccccc1)C(=O)O)C(=O)N1CCC[C@H]1C(=O)O [monohydrate lisinopril form 1, 1-(N^2-[(S)-1-carboxy-3-phenylpropyl]-L-lysyl)-L-proline]	stable at a standard room temperature and humidity	stable under ambient conditions	crystal size (length / edge length) (crystal size by SEM; listed as monohydrate form 1): 50 to 500 μm
NCCCC[C@H](N[C@@H](CCc1ccccc1)C(=O)O)C(=O)N1CCC[C@H]1C(=O)O [monohydrate lisinopril form 2, 1-(N^2-[(S)-1-carboxy-3-phenylpropyl]-L-lysyl)-L-proline]			crystal size (length / edge length) (crystal size by SEM; listed as monohydrate form 2): ≤ 5 μm
